According to US20240058387A1, “CULTURE MEDIUM COMPOSITION FOR AMPLIFYING AND MAINTAINING SELF-RENEWAL CAPACITY AND DIFFERENTIATION POTENTIAL OF HSCS AND APPLICATION THEREOF” (EDIGENE (GUANGZHOU) INC., priority 2020, published 2024):

Tested on: mobilized peripheral blood-derived CD34+ cells
Assay: Flow cytometry detection of HSC stemness markers, comparison with UM171 and SR1
Assay type: cell-based, human
Details: FIG. 5A; 1 μM; 8 days
Protocol: According to the solubility and required solvent indicated in the instructions of the small molecule inhibitor (see Table 1 for the Cat. number of the small molecule inhibitor), the preparation of the small molecule inhibitor stock solution was carried out. Next, the hematopoietic stem cell medium was prepared: SFEM II medium (stem cell, Cat. number: 09655)+50 ng/ml growth factor Flt-3L (PeProtech, Cat. number: 300-100UG)+50 ng/ml growth factor SCF (PeProtech, Cat. number): 300-07-100UG)+50 ng/ml growth factor TPO (PeProtech, Cat. number: 300-18-100UG)+10 ng/ml interleukin IL-6 (PeProtech, Cat. number: 200-06-20UG)+1% bispecific antibody (HyClone, Cat. No.: sv30010). According to the set concentration gradient of the small molecule inhibitor, the stock solution and the basal medium were used to prepare the medium containing different concentrations of the small molecule inhibitor.
First, the prepared medium was added to a 24-well plate (Corning, Cat. number: 3473), 950 μl per well, and placing it in a carbon dioxide incubator (Thermo, model: 3111) to preheat; resuspending the spare umbilical cord Blood-derived HSCs of Example 1 with SFEM 11+50 ng/ml Flt-3L+50 ng/ml SCF+50 ng/ml TPO+10 ng/ml IL-6+1% bispecific antibody, calculating the medium volume to be added according to 50 μl cell suspension per well and 2*10^5/m1 cell density per well. For example, when the final volume of the cell culture solution per well was 1 ml, the total number of cells per well was 2*10^5 cells calculated according to the cell density per well, and the density of the […] of cell suspension supplemented to each well is 4*10^6/ml. The density of the spare HSCs of Example 1 was adjusted to the calculated density of the cell suspension, and adding it; taking out the preheated medium from the incubator, adding 50 μl of the cell suspension to each well, and after mixing, using the microscope (OLYMPUS, model: CKX53) to observe the cells state, and then putting it into an incubator for culturing.
20 μL of cells cultured for 6-8 days (D6-D8) in the above Example 2 was sampled for counting, taking out a suspension of 2*10^5 cells into a 1.5 ml centrifuge tube according to the counting result; centrifuging at 400 g for 5 min, discarding the supernatant. 100 μL of PBS (phosphate-buffered saline solution, HyClone, Cat. number: SH30256.01) containing 1% HSA (human serum albumin, Guangdong Shuanglin, Cat. number: S10970069) was taken, resuspending the cells, and vortexing to mix well for later use. Then, the cell sample in the control was collected. The number of cells and the collection method were the same as those of the sample cells to be tested. The controls were setting as the NC group and the ISO group respectively, selecting the cells from any sample or mixed cells of the samples to be tested in this batch of experiments, depending on the number of cells.
According to Table 3 above, the antibodies were added to the cell suspensions of the above-mentioned cell samples to be tested and control cell samples according to groups; vortexing to mix and incubating at room temperature for 15 min in the dark. After 15-min incubation, 1 ml of PBS containing 1% HSA was added to each test sample, mixing well, centrifuging at 400 g for 5 min at room temperature. After centrifugation, the supernatant was discarded, and the cells were resuspended in 100 μL of PBS containing 1% HSA for each test sample. Samples were stored at room temperature away from light before testing. […]

COc1cc2ncc(-c3ccccc3)nc2cc1OC [AG1296]
maintaining the proportion of CD34+, CD34+CD90+, and CD34+CD90+CD45RA- cells, vs Mock, UM171 and lower AG1296 concentrations: significantly more effective than Mock group, UM171 group, AG1296 (500 nM) group and AG1296 (700 nM) group
maintaining the proportion of CD34+, CD34+CD90+, and CD34+CD90+CD45RA- cells, vs SR1 group: not as good as the SR1 group
proportion of LT-HSCs relative to AG1296 (500 nM) group and AG1296 (700 nM) group: about 1 time
proportion of LT-HSCs relative to Mock group and UM171 group: about 2 times
proportion of LT-HSCs, vs SR1 group: not as good as SR1 group
